Patent US4382892A, “Benzoxazine derivatives” (Daiichi Seiyaku Co., Ltd., priority 1980, dated 1983)
≈ marks a conversion by molar mass, not a printed value.

Key:
[1] = tested on: Bacillus subtilis, ATCC 6633; assay: Antibacterial activity in vitro, MIC (Table 1); format: cell-based; conditions: ATCC6633, dilution method on plate culture (heart infusion agar), 10^6/ml, 37° C., 18 hours, read-out: Minimum Inhibitory Concentration (MIC)
Procedure: (§1) *Determined by the standard method of the Japan Society of Chemotherapy:
(§2) dilution method on plate culture (heart infusion agar culture), 10^6
(§3) /ml of bacteria were seeded and incubated at 37° C. for 18 hours.

[2] = tested on: Enterobacter cloacae, 12001; assay: Antibacterial activity in vitro, MIC (Table 1); format: cell-based; conditions: read-out: Minimum Inhibitory Concentration (MIC)
Procedure: as §1, §2, §3

Escherichia coli NIHJ [3] = assay: Antibacterial activity in vitro, MIC (Table 1); format: cell-based; conditions: read-out: Minimum Inhibitory Concentration (MIC)
Procedure: as §1, §2, §3

[4] = tested on: Klebsiella pneumoniae, 501; assay: Antibacterial activity in vitro, MIC (Table 1); format: cell-based; conditions: dilution method on plate culture (heart infusion agar), 10^6/ml, 37° C., 18 hours, read-out: Minimum Inhibitory Concentration (MIC)
Procedure: as §1, §2, §3

Proteus mirabilis, 1287 [5] = assay: Antibacterial activity in vitro, MIC (Table 1); format: cell-based; conditions: dilution method on plate culture (heart infusion agar), 10^6/ml, 37° C., 18 hours, read-out: Minimum Inhibitory Concentration (MIC)
Procedure: as §1, §2, §3

Proteus vulgaris, 3167 [6] = assay: Antibacterial activity in vitro, MIC (Table 1); format: cell-based; conditions: read-out: Minimum Inhibitory Concentration (MIC)
Procedure: as §1, §2, §3

[7] = tested on: Pseudomonas aeruginosa, 2063; assay: Antibacterial activity in vitro, MIC (Table 1); format: cell-based; conditions: dilution method on plate culture (heart infusion agar), 10^6/ml, 37° C., 18 hours, read-out: Minimum Inhibitory Concentration (MIC)
Procedure: as §1, §2, §3

[8] = tested on: Pseudomonas sepacia, II D 1340; assay: Antibacterial activity in vitro, MIC (Table 1); format: cell-based; conditions: IID1340, dilution method on plate culture (heart infusion agar), 10^6/ml, 37° C., 18 hours, read-out: Minimum Inhibitory Concentration (MIC)
Procedure: as §1, §2, §3

[9] = tested on: Serratia marcescens, 13001; assay: Antibacterial activity in vitro, MIC (Table 1); format: cell-based; conditions: dilution method on plate culture (heart infusion agar), 10^6/ml, 37° C., 18 hours, read-out: Minimum Inhibitory Concentration (MIC)
Procedure: as §1, §2, §3

[10] = tested on: Shigella flexneri 2a, 5503; assay: Antibacterial activity in vitro, MIC (Table 1); format: cell-based; conditions: dilution method on plate culture (heart infusion agar), 10^6/ml, 37° C., 18 hours, read-out: Minimum Inhibitory Concentration (MIC)
Procedure: as §1, §2, §3

[11] = tested on: Staphylococcus aureus, 209 P; assay: Antibacterial activity in vitro, MIC (Table 1); format: cell-based; conditions: dilution method on plate culture (heart infusion agar), 10^6/ml, 37° C., 18 hours, read-out: Minimum Inhibitory Concentration (MIC)
Procedure: as §1, §2, §3

[12] = tested on: Streptococcus pyogenes, G-36; assay: Antibacterial activity in vitro, MIC (Table 1); format: cell-based; conditions: G36, dilution method on plate culture (heart infusion agar), 10^6/ml, 37° C., 18 hours, read-out: Minimum Inhibitory Concentration (MIC)
Procedure: as §1, §2, §3

[13] = tested on: gram-negative and gram-positive bacteria (test organisms); assay: Antibacterial activity (in vitro), comparison in words; format: cell-based; conditions: compounds of this invention versus known compounds / PPA
Procedure: as §1, §2, §3
(§4) *Determined in MullerHinton Bouillon, 10^6 /ml of bacteria were seede
(§5) and incubated at 37° C. for 18 hours.

mice = mice (i.v.)
in vivo = conditions: mouse, iv
[14] = tested on: Bacillus subtilis, ATCC 6633; assay: Antibacterial activity in vitro, MIC (Table 2); format: cell-based; conditions: ATCC6633, MullerHinton Bouillon, 10^6/ml, 37° C., 18 hours, read-out: Minimum Inhibitory Concentration (MIC)
Procedure: as §4, §5

[15] = tested on: Enterobacter cloacae, 12001; assay: Antibacterial activity in vitro, MIC (Table 2); format: cell-based; conditions: MullerHinton Bouillon, 10^6/ml, 37° C., 18 hours, read-out: Minimum Inhibitory Concentration (MIC)
Procedure: as §4, §5

Escherichia coli NIHJ [16] = assay: Antibacterial activity in vitro, MIC (Table 2); format: cell-based; conditions: MullerHinton Bouillon, 10^6/ml, 37° C., 18 hours, read-out: Minimum Inhibitory Concentration (MIC)
Procedure: as §4, §5

[17] = tested on: Klebsiella pneumoniae, 501; assay: Antibacterial activity in vitro, MIC (Table 2); format: cell-based; conditions: MullerHinton Bouillon, 10^6/ml, 37° C., 18 hours, read-out: Minimum Inhibitory Concentration (MIC)
Procedure: as §4, §5

Proteus mirabilis, 1287 [18] = assay: Antibacterial activity in vitro, MIC (Table 2); format: cell-based; conditions: MullerHinton Bouillon, 10^6/ml, 37° C., 18 hours, read-out: Minimum Inhibitory Concentration (MIC)
Procedure: as §4, §5

Proteus vulgaris, 3167 [19] = assay: Antibacterial activity in vitro, MIC (Table 2); format: cell-based; conditions: MullerHinton Bouillon, 10^6/ml, 37° C., 18 hours, read-out: Minimum Inhibitory Concentration (MIC)
Procedure: as §4, §5

[20] = tested on: Pseudomonas aeruginosa, 2063; assay: Antibacterial activity in vitro, MIC (Table 2); format: cell-based; conditions: MullerHinton Bouillon, 10^6/ml, 37° C., 18 hours, read-out: Minimum Inhibitory Concentration (MIC)
Procedure: as §4, §5

[21] = tested on: Pseudomonas sepacia, II D 5132; assay: Antibacterial activity in vitro, MIC (Table 2); format: cell-based; conditions: IID5132, MullerHinton Bouillon, 10^6/ml, 37° C., 18 hours, read-out: Minimum Inhibitory Concentration (MIC)
Procedure: as §4, §5

[22] = tested on: Serratia marcescens, 13001; assay: Antibacterial activity in vitro, MIC (Table 2); format: cell-based; conditions: MullerHinton Bouillon, 10^6/ml, 37° C., 18 hours, read-out: Minimum Inhibitory Concentration (MIC)
Procedure: as §4, §5

[23] = tested on: Shigella flexneri 2a, 5503; assay: Antibacterial activity in vitro, MIC (Table 2); format: cell-based; conditions: MullerHinton Bouillon, 10^6/ml, 37° C., 18 hours, read-out: Minimum Inhibitory Concentration (MIC)
Procedure: as §4, §5

[24] = tested on: Staphylococcus aureus, 209 P; assay: Antibacterial activity in vitro, MIC (Table 2); format: cell-based; conditions: MullerHinton Bouillon, 10^6/ml, 37° C., 18 hours, read-out: Minimum Inhibitory Concentration (MIC)
Procedure: as §4, §5

[25] = tested on: Streptococcus pyogenes, G-36; assay: Antibacterial activity in vitro, MIC (Table 2); format: cell-based; conditions: G36, MullerHinton Bouillon, 10^6/ml, 37° C., 18 hours, read-out: Minimum Inhibitory Concentration (MIC)
Procedure: as §4, §5

[26] = Enterobacter cloacae, 12001, dilution method on plate culture (heart infusion agar), 10^6/ml, 37° C., 18 hours
[27] = Escherichia coli NIHJ, dilution method on plate culture (heart infusion agar), 10^6/ml, 37° C., 18 hours
[28] = Proteus vulgaris, 3167, dilution method on plate culture (heart infusion agar), 10^6/ml, 37° C., 18 hours

Compound | MIC [1] | MIC [4] | MIC (Proteus mirabilis, 1287 [5]) | MIC [7] | MIC [8] | MIC [9] | MIC [10] | MIC [11] | MIC [12] | toxicity (in words) (mice) | LD50 (in vivo) | MIC [14] | MIC [15] | MIC (Escherichia coli NIHJ [16]) | MIC [17] | MIC (Proteus mirabilis, 1287 [18]) | MIC (Proteus vulgaris, 3167 [19]) | MIC [2, 26] | MIC (Escherichia coli NIHJ [3]; [27]) | MIC (Proteus vulgaris, 3167 [6]; [28]) | further results
CCn1cc(C(=O)O)c(=O)c2cnc(N3CCNCC3)nc21 [PPA, 8-ethyl-5,8-dihydro-5-oxo-2-(1-piperazinyl)-pyrido[2,3-d]pyrimidine-6-carboxylic acid, reference compound] | 6.25 µg/mL (≈ 20.6 µM) | 6.25 µg/mL (≈ 20.6 µM) | 6.25 µg/mL (≈ 20.6 µM) | 25 µg/mL (≈ 82.4 µM) | 100 µg/mL (≈ 330 µM) | 6.25 µg/mL (≈ 20.6 µM) | 1.56 µg/mL (≈ 5.14 µM) | 12.5 µg/mL (≈ 41.2 µM) | > 100 µg/mL | low toxicity |  |  |  |  |  |  |  |  |  |  | MIC ([2]; Enterobacter cloacae, 12001, 18 h): 1.56 µg/mL (≈ 5.14 µM); MIC (Escherichia coli NIHJ [3]; Escherichia coli, 18 h): 1.56 µg/mL (≈ 5.14 µM); MIC (Proteus vulgaris, 3167 [6]; Proteus vulgaris, 3167, 18 h): 1.56 µg/mL (≈ 5.14 µM); antibacterial activity (in words) [13]: much weaker than the compounds of this invention
CC1CCc2c(N3CCN(C)CC3)c(F)cc3c(=O)c(C(=O)O)cn1c23 (stereo not drawn) [8-(4-methyl-1-piperazinyl)-9-fluoro-5-methyl-6,7-dihydro-1-oxo-1H,5H-benz[ij]quinolizine-2-carboxylic acid, reference compound] |  |  |  |  |  |  |  |  |  | comparatively high toxicity | 135 mg/kg |  |  |  |  |  |  |  |  |  | 
CC1COc2c(N3CCN(C)CC3)c(Cl)cc3c(=O)c(C(=O)O)cn1c23 (stereo not drawn) [Id, 9-chloro-3-methyl-10-(4-methyl-1-piperazinyl)-7-oxo-2,3-dihydro-7H-pyrido[1,2,3-de][1,4]benzoxazine-6-carboxylic acid] |  |  |  |  |  |  |  |  |  |  |  | 0.1 µg/mL (≈ 0.265 µM) | ≤ 0.05 µg/mL | ≤ 0.05 µg/mL | 0.2 µg/mL (≈ 0.529 µM) | 0.1 µg/mL (≈ 0.265 µM) | ≤ 0.05 µg/mL |  |  |  | MIC [20]: 0.78 µg/mL (≈ 2.06 µM); MIC [21]: 6.25 µg/mL (≈ 16.5 µM); MIC [22]: 0.1 µg/mL (≈ 0.265 µM); MIC [23]: ≤ 0.05 µg/mL; MIC [24]: 0.2 µg/mL (≈ 0.529 µM); MIC [25]: 12.5 µg/mL (≈ 33.1 µM)
CC1COc2c(N3CCNCC3)c(F)cc3c(=O)c(C(=O)O)cn1c23 (stereo not drawn) [Ib, 9-fluoro-3-methyl-7-oxo-10-(1-piperazinyl)-2,3-dihydro-7H-pyrido[1,2,3-de][1,4]benzoxazine-6-carboxylic acid] | 0.39 µg/mL (≈ 1.12 µM) | 0.39 µg/mL (≈ 1.12 µM) | 0.1 µg/mL (≈ 0.288 µM) | 0.78 µg/mL (≈ 2.25 µM) | 12.5 µg/mL (≈ 36 µM) | 0.78 µg/mL (≈ 2.25 µM) | 0.05 µg/mL (≈ 0.144 µM) | 0.39 µg/mL (≈ 1.12 µM) | 3.13 µg/mL (≈ 9.01 µM) |  |  |  |  |  |  |  |  | 0.2 µg/mL (≈ 0.576 µM) | ≤ 0.025 µg/mL | 0.05 µg/mL (≈ 0.144 µM) | 
CC1COc2c(N3CCC(O)C3)c(F)cc3c(=O)c(C(=O)O)cn1c23 (stereo not drawn) [Ic, 9-fluoro-10-(3-hydroxy-1-pyrrolidinyl)-3-methyl-7-oxo-2,3-dihydro-7H-pyrido[1,2,3-de][1,4]benzoxazine-6-carboxylic acid] | 0.05 µg/mL (≈ 0.144 µM) | 0.78 µg/mL (≈ 2.24 µM) | 0.1 µg/mL (≈ 0.287 µM) | 1.56 µg/mL (≈ 4.48 µM) |  | 0.78 µg/mL (≈ 2.24 µM) | 0.1 µg/mL (≈ 0.287 µM) | 0.1 µg/mL (≈ 0.287 µM) | 0.78 µg/mL (≈ 2.24 µM) |  |  |  |  |  |  |  |  | 0.2 µg/mL (≈ 0.574 µM) | 0.05 µg/mL (≈ 0.144 µM) | 0.1 µg/mL (≈ 0.287 µM) | 
CC1COc2c(N3CCN(C)CC3)c(F)cc3c(=O)c(C(=O)O)cn1c23 (stereo not drawn) [Ia, 9-fluoro-10-(4-methyl-1-piperazinyl)-3-methyl-7-oxo-2,3-dihydro-7H-pyrido[1,2,3-de][1,4]benzoxazine-6-carboxylic acid] | 0.2 µg/mL (≈ 0.553 µM) | 0.2 µg/mL (≈ 0.553 µM) | 0.1 µg/mL (≈ 0.277 µM) | 1.56 µg/mL (≈ 4.32 µM) |  | 0.2 µg/mL (≈ 0.553 µM) | 0.05 µg/mL (≈ 0.138 µM) | 0.39 µg/mL (≈ 1.08 µM) | 1.56 µg/mL (≈ 4.32 µM) |  | 380 mg/kg | 0.1 µg/mL (≈ 0.277 µM) | 0.1 µg/mL (≈ 0.277 µM) | ≤ 0.05 µg/mL | 0.39 µg/mL (≈ 1.08 µM) | 0.1 µg/mL (≈ 0.277 µM) | ≤ 0.05 µg/mL | 0.1 µg/mL (≈ 0.277 µM) | ≤ 0.025 µg/mL | 0.05 µg/mL (≈ 0.138 µM) | MIC [20]: 0.78 µg/mL (≈ 2.16 µM); MIC [21]: 12.5 µg/mL (≈ 34.6 µM); MIC [22]: 0.1 µg/mL (≈ 0.277 µM); MIC [23]: ≤ 0.05 µg/mL; MIC [24]: 0.39 µg/mL (≈ 1.08 µM); MIC [25]: 1.56 µg/mL (≈ 4.32 µM)
